Patent US10799501B2, “Combination of an inhibitor of PARP with an inhibitor of GSK-3 or DOT1L” (King's College London, priority 2015, dated 2020)

What was measured:
[1] = tested on: AML1-ETO transformed cells; assay: In vitro drug treatment of primary murine hematopoietic cells transformed by AML1-ETO (RTTA); type: cell-based, mouse
Protocol: Transduction using concentrated viral supernatant expressing the oncogene of interest was carried out by centrifugation (spinoculation) at 800 g at 32° C. for 2 hours in the presence of 5 μg ml^-1 polybrene (Sigma-Aldrich). Cells were subsequently plated in 1% methylcellulose medium ([…]; Stem Cell Technologies) containing 20 ngml^-1 SCF, 10 ngml^-1 IL-3, 10 ngml^-1 IL-6 and 10 ngml^-1 granulocyte macrophage colony-stimulating factor (GM-CSF) and appropriate selection antibiotic. Colonies were counted after 7 days of culture and replated every 6-7 days at 5×103-1.5×10^4 cell density. Re-plating was performed weekly to generate primary cell lines for further analysis. After the third or fourth round of plating, cells were cultured in R20/20 medium (RPMI 1640, 20% FCS, 20% WEHI-conditioned medium, 2 mM L-glutamine, 100 U/ml penicillin, and 100 μg/ml streptomycin) supplemented with 20 ngml^-1 stem cell factor (SCF), 10 ngml^-1 interleukin (IL)-3, and 10 ngml^-1 IL-6 to establish cell lines. All recombinant murine cytokines were from PeprotechEC. […] Colonies were scored 6-7 days after plating. For other in vitro studies, mouse leukemic cells and primary AML cell lines were subjected to continuously Olaparib (1 μM) or LiCl (8 mM) treatment in liquid culture for whole duration as indicated in the figures or figure legends. For human leukemic cell lines, experiments were performed as described above with 5 μM Olaparib. Cells were cytospun onto a glass slide at 400 g for 5 minutes and then fixed for 10 minutes with 2% formaldehyde/0.2% glutaraldehyde (Sigma Aldrich). Cells were then washed with PBS, and then incubated at 37° C. for at least 2 hours with a staining solution (30 mM Citric Acid/Phosphate buffer, 5 mM K4Fe(CN)6, 5 mM K3Fe(CN)6, 150 mM NaCl, 2 mM MgCl2, 1 mg/ml X-Gal) (All reagents from Sigma-Aldrich)62. Cells were counted in at least 5 fields for each slide, for a total of over 100 cells. The percentage of senescent cells was calculated by the percentage of the number of blue cell in the field. Cells were cytospun onto a glass slide at 400 g for 5 minutes and then fixed for 30 minutes in 4% PFA and permeabilized and blocked in 0.8% Tx-100, 10% FBS/1% BSA (Sigma-Aldrich) in PBS for 15 min at room temperature. Mouse anti mouse γH2AX ([…]) (Upstate clone JBW301#05-636) and rabbit anti mouse RAD51 (Santa Cruz Biotecnology […]# sc-8349) were diluted in TBS containing 10% FBS/1% BSA and incubated overnight at 4C. […] Slides were then washed five times at 10 min each with PBS. Slides were briefly washed in water and air-dried prior to mounting with Mowiol-DABCO and a coverslip. Cells were counted in at least 5 fields for each slide, for a total of over 100 cells per condition. 1×10^5 cells were cytospun for 5 min at 300 g onto glass slides. Slides were then stained with May-Grunwald solution (Sigma-Aldrich) for 3 min at room temperature. After washing in water, they were incubated for 20 min in Giemsa solution (Sigma-Aldrich) (1:20 in water). Slides were washed again in water before being mounted with Mowiol. Cells were counted in at least 5 fields for each slide, for a total of over 100 cells per condition. NBT reduction assay were performed to determine myeloid differentiation. […] Cells were then washed in PBS and the differentiated cells were indicated by the deposition of dark blue insoluble formazan (NBT positive cells) and the percentage of differentiated cells were counted under microscopy. At least 200 cells were counted in most of the cases.

[2] = tested on: MLL-AF9 Hoxa9−/− transformed cells; assay: In vitro PARPi treatment of MLL-AF9 transformed cells from Hoxa9−/− background; type: cell-based, mouse
Protocol: Transduction using concentrated viral supernatant expressing the oncogene of interest was carried out by centrifugation (spinoculation) at 800 g at 32° C. for 2 hours in the presence of 5 μg ml^-1 polybrene (Sigma-Aldrich). Cells were subsequently plated in 1% methylcellulose medium ([…]; Stem Cell Technologies) containing 20 ngml^-1 SCF, 10 ngml^-1 IL-3, 10 ngml^-1 IL-6 and 10 ngml^-1 granulocyte macrophage colony-stimulating factor (GM-CSF) and appropriate selection antibiotic. Colonies were counted after 7 days of culture and replated every 6-7 days at 5×103-1.5×10^4 cell density. Re-plating was performed weekly to generate primary cell lines for further analysis. After the third or fourth round of plating, cells were cultured in R20/20 medium (RPMI 1640, 20% FCS, 20% WEHI-conditioned medium, 2 mM L-glutamine, 100 U/ml penicillin, and 100 μg/ml streptomycin) supplemented with 20 ngml^-1 stem cell factor (SCF), 10 ngml^-1 interleukin (IL)-3, and 10 ngml^-1 IL-6 to establish cell lines. All recombinant murine cytokines were from PeprotechEC. […] Colonies were scored 6-7 days after plating. […] Cells were counted in at least 5 fields for each slide, for a total of over 100 cells. The percentage of senescent cells was calculated by the percentage of the number of blue cell in the field.

ovarian cancer = conditions: untargeted population; cited from earlier work

Q: For `O=C(c1cc(Cc2n[nH]c(=O)c3ccccc23)ccc1F)N1CCN(C(=O)C2CC2)CC1` [Olaparib, 4-[(3-[(4-cyclopropylcarbonyl)piperazin-4-yl]carbonyl)-4-fluorophenyl]methyl(2H)-phthalazin-1-one], which “suppression of colony forming ability” value ([1]; 1 uM Olaparib, methylcellulose 7 days, p<0.001) is on record?
A: about 90%

Q: And the “senescence (β-galactosidase staining)” value ([1]; PARPi 24 hrs and 48 hrs)?
A: underwent significant senescence

Q: What about the “Rad51 recruitment to DNA damage sites (RAD51 foci)” value ([1]; PARPi treatment for 6 hours) of the same compound?
A: no significant Rad51 recruitment

Q: What about the “percentage of differentiation (morphology and NBT reduction)” value ([1]; time course PARPi treatment) of the same compound?
A: significantly increased the percentage of differentiation

Q: And the “cells with γH2AX and Rad51 foci ratio greater than 2” value ([1]; upon PARPi treatment)?
A: around 80%

Q: What about the “senescence (β-galactosidase staining)” value ([2]; 48 hrs PARPi treatment) of the same compound?
A: induction of senescence

Q: What about the “colony forming ability and differentiation” value ([2]; seven days in methylcellulose with PARPi) of the same compound?
A: significant suppression of colony forming ability and differentiation

Q: What about the “overall survival benefit compared to chemotherapy” value (ovarian cancer) of the same compound?
A: failed to show overall survival benefit
